According to patent US20160368919A1, “NOVEL PYRIDINE PYRAZINONES AS BET-FAMILY BROMODOMAIN INHIBITORS” (Pfizer Inc., priority 2015, published 2016):

Legend:
BRD4 BD1 = biological target: T1, BRD4 BD1 (Homo sapiens, UniProt O60885); assay: BRD4 BD1 Fluorescence Polarization (FP) competition binding assay; conditions: BRD4 BD1 40 nM, probe PFI-411FP 2 nM
T1 construct: His-tagged BRD4 BD1 (44-160); made in house
Protocol: Compound binding to BRD4 BD1 was assessed with a FP competition binding assay. […] All assay components were diluted in 50 mM HEPES pH 7.4 containing 0.08% bovine serum albumin (assay buffer). To start the assay, 8 μL of BRD4 BD1 was added to each well of a low volume 384-well black flat bottom microtiter plate (Corning 3820) containing 4 μl of various concentrations of test compound (each plate also contained positive and negative control wells to define the upper and lower limits of the assay signal). After addition of BRD4 BD1, the assay plate was incubated at room temperature (RT, 20° C.). After 15 minutes, 4 μL of PFI-411FP was added to each well and the assay plate was placed in the dark at RT. The final assay concentration (FAC) of PFI-411FP was 2 nM, the FAC of BRD4 BD1 was 40 nM, the FAC of test compound ranged from 120 to 0.0012 μM and the FAC of DMSO was 0.4%. After 60 min, polarization values were measured with an Envision 2103 multilabel reader (Perkin Elmer) using a Cy5 dual enhanced mirror and excitation at 620 nm and emission at 688 nm. The percent (%) effect was calculated for each concentration of test compound and was relative to the amount of polarization signal produced by the positive and negative control wells contained within each assay plate. The concentrations and % effect values for test compounds were plotted versus each other with a proprietary curve fitting program using a four-parameter logistic dose response equation and the concentration of compound required for 50% effect (IC50) was determined. The Ki values of competitive inhibitors were calculated using the equation described by Nikolovska-Coleska et al. (Development and optimization of a binding assay for the XIAP BIR3 domain using fluorescence polarization. Analytical Biochemistry (2004) 332: 261-273).

[1] = test system: LPS-induced IL-6 production in human whole blood; assay: IL-6 human whole blood (HWB) assay, LPS-stimulated, HTRF detection; assay type: cell-based; conditions: 1 ng/ml LPS, 4 hours
Protocol: Compound effect on IL-6 production was determined using lipopolysaccharide (LPS)-stimulated human whole blood and an HTRF (Homogeneous Time-Resolved Fluorescence) IL-6 detection kit (Human IL6 HTRF Assay CisBio 62IL6PEC). HWB was collected by venous puncture from healthy donors, transferred to a 50 ml polypropylene tube containing sodium heparin (14.3 units per mL of HWB) and then placed in a 37° C. water bath until use. To start the assay, 80 μL of heparin-treated HWB containing 1 ng/ml of LPS (equivalent to LPS ˜EC80 with regard to stimulation of IL-6 production in HWB under these assay conditions) was added to each well of a 384-well, sterile, endotoxin-free, polypropylene plate (Greiner 781281) containing 160 nL of various concentrations of test compound (each plate also contained positive and negative control wells to define the upper and lower limits of the assay signal). The plate was then placed in a thermoshaker incubator set to 370C (Boekel 270440). The final assay concentration (FAC) of test compound ranged from 60 to 0.0006 μM and the FAC of DMSO was 0.2%. After 4 hours, the assay plate was removed from the incubator and centrifuged at 700×g for 10 minutes. 5 μL of the resulting upper plasma layer was removed from each well and diluted 1:2 with 1×Dulbecco's phosphate buffered saline (DPBS). 5 μL of this diluted plasma was then transferred to a white 384-well low volume assay plate (Greiner 784080) containing 5 μL of combined anti-IL-6-Cryptate and anti-IL-6-XL665 detection antibodies (per manufacturer's protocol). The plate was then sealed with a Top Seal (Perkin Elmer 6005185) and incubated at room temperature (RT, 20° C.). After 16-18 hrs (overnight), the HTRF assay signal was read on an Envision 2103 plate reader using a Lance Delfia Dual/Bias mirror TRF laser excitation and emission was measured at 665 nm and 615 nm respectively. The percent (%) effect was calculated for each concentration of test compound and was relative to the amount of HTRF signal produced by the positive and negative control wells contained within each assay plate. The concentrations and % effect values for test compounds were plotted versus each other with a proprietary curve fitting program using a four-parameter logistic dose response equation and the concentration of compound required for 50% effect (IC50) was determined.

IC50 (BRD4 BD1) [nM] | IC50 [1] [nM] | SMILES
730 | 38400 | COc1ccccc1[C@H](C)n1c(=O)c(NCCC(=O)O)nc2ccc(N(C)C(C)=O)nc21 [Example 1, N-{6-[acetyl(methyl)amino]-4-[(1S)-1-(2-methoxyphenyl)ethyl]-3-oxo-3,4-dihydropyrido[2,3-b]pyrazin-2-yl}-beta-alanine]
2710 |  | CCN(C(C)=O)c1ccc2nc(NCCC(=O)O)c(=O)n([C@@H](C)c3ccccc3OC)c2n1 [Example 2, N-{6-[acetyl(ethyl)amino]-4-[(1S)-1-(2-methoxyphenyl)ethyl]-3-oxo-3,4-dihydropyrido[2,3-b]pyrazin-2-yl}-beta-alanine]
117 | 2050 | CC[C@@H](c1ccccc1)n1c(=O)c(NCCC(=O)O)nc2ccc(N(C)C(C)=O)nc21 [Example 3, N-{6-[acetyl(methyl)amino]-3-oxo-4-[(1S)-1-phenylpropyl]-3,4-dihydropyrido[2,3-b]pyrazin-2-yl}-beta-alanine]
956 | 14100 | CC[C@@H](c1ccccc1)n1c(=O)c(NCCC(=O)O)nc2ccc(N(C)C(=O)CO)nc21 [Example 4, N-{6-[(hydroxyacetyl)(methyl)amino]-3-oxo-4-[(1S)-1-phenylpropyl]-3,4-dihydropyrido[2,3-b]pyrazin-2-yl}-beta-alanine]
653 | 1580 | CNc1nc2ccc(N(C)C(C)=O)nc2n([C@@H](C)c2ccccc2OC)c1=O [Example 5, N-{4-[(1S)-1-(2-methoxyphenyl)ethyl]-2-(methylamino)-3-oxo-3,4-dihydropyrido[2,3-b]pyrazin-6-yl}-N-methylacetamide]
155 | 1420 | CC[C@@H](c1ccccc1)n1c(=O)c(NCCC(=O)O)nc2ccc(N(C)C(=O)C(C)C)nc21 [Example 6, N-{6-[methyl(2-methylpropanoyl)amino]-3-oxo-4-[(1S)-1-phenylpropyl]-3,4-dihydropyrido[2,3-b]pyrazin-2-yl}-beta-alanine]
130 | 2390 | CCCC(=O)N(C)c1ccc2nc(NCCC(=O)O)c(=O)n([C@@H](CC)c3ccccc3)c2n1 [Example 7, N-{6-[butanoyl(methyl)amino]-3-oxo-4-[(1S)-1-phenylpropyl]-3,4-dihydropyrido[2,3-b]pyrazin-2-yl}-beta-alanine]
122 | 1800 | CC[C@@H](c1ccccc1)n1c(=O)c(NCCC(=O)O)nc2ccc(N(C)C(=O)C3CCC3)nc21 [Example 8]
150 | 3830 | CC[C@@H](c1ccccc1)n1c(=O)c(NCCC(=O)O)nc2ccc(N(C)C(=O)NC)nc21 [Example 9, N-{6-[methyl(methylcarbamoyl)amino]-3-oxo-4-[(1S)-1-phenylpropyl]-3,4-dihydropyrido[2,3-b]pyrazin-2-yl}-beta-alanine]
251 | 2680 | CCC(=O)N(C)c1ccc2nc(NCCC(=O)O)c(=O)n([C@@H](CC)c3ccccn3)c2n1 [Example 11, N-{6-[methyl(propanoyl)amino]-3-oxo-4-[(1S)-1-(pyridin-2-yl)propyl]-3,4-dihydropyrido[2,3-b]pyrazin-2-yl}-beta-alanine]
805 | 18100 | CCC(=O)N(C)c1ccc2nc(NCCC(=O)O)c(=O)n(C3(c4ccccc4)CCC3)c2n1 [Example 12, N-{6-[methyl(propanol)amino]-3-oxo-4-(1-phenylcyclobutyl)-3,4-dihydropyrido[2,3-b]pyrazin-2-yl}-beta-alanine]
10200 |  | CCC(=O)N(C)c1ccc2nc(NCCC(=O)O)c(=O)n([C@@H]3COC[C@H]3c3ccccc3)c2n1 [Example 15, N-{6-[methyl(propanoyl)amino]-3-oxo-4-[(3S,4S)-4-phenyltetrahydrofuran-3-yl]-3,4-dihydropyrido[2,3-b]pyrazin-2-yl}-beta-alanine]
3880 |  | CC[C@H](COC)n1c(=O)c(NCCC(=O)O)nc2ccc(N(C)C(C)=O)nc21 [Example 16, N-{6-[acetyl(methyl)amino]-4-[(2R)-1-methoxybutan-2-yl]-3-oxo-3,4-dihydropyrido[2,3-b]pyrazin-2-yl}-beta-alanine]
4190 |  | CCC(=O)N(C)c1ccc2nc(NCC(=O)NC)c(=O)n([C@H](CC)COC)c2n1 [Example 18, N-(4-[(2R)-1-methoxybutan-2-yl]-2-{[2-(methylamino)-2-oxoethyl]amino}-3-oxo-3,4-dihydropyrido[2,3-b]pyrazin-6-yl)-N-methylpropanamide]
4030 |  | CCC(=O)N(C)c1ccc2nc(NCC(=O)NC)c(=O)n(C(COC)COC)c2n1 [Example 19, N-(4-(1,3-dimethoxypropan-2-yl)-2-((2-(methylamino)-2-oxoethyl)amino)-3-oxo-3,4-dihydropyrido[2,3-b]pyrazin-6-yl)-N-methylpropionamide]
1580 |  | CCC(=O)N(C)c1ccc2nc(NCCC(=O)O)c(=O)n(C3(C4CCCC4)CC3)c2n1 [Example 24, N-{4-(1-cyclopentylcyclopropyl)-6-[methyl(propanoyl)amino]-3-oxo-3,4-dihdropyrido[2,3-b]pyrazin-2-yl}-beta-alanine]
6370 |  | CC[C@@H](c1ccccc1)n1c(=O)c(NCCC(=O)O)nc2ccc(N(C)C(=O)C3CC(C)(C)C3)nc21 [Example 25, N-(6-{[(3,3-dimethylcyclobutyl)carbonyl](methyl)amino}-3-oxo-4-[(1S)-1-phenylpropyl]-3,4-dihydropyrido[2,3-b]pyrazin-2-yl)-beta-alanine]
7590 |  | CC[C@@H](c1ccccc1)n1c(=O)c(NCCC(=O)O)nc2ccc(N(C)C(=O)C3CC(F)(F)C3)nc21 [Example 26, N-(6-{[(3,3-difluorocyclobutyl)carbonyl](methyl)amino}-3-oxo-4-[(1S)-1-phenylpropyl]-3,4-dihydropyrido[2,3-b]pyrazin-2-yl)-beta-alanine]
1500 |  | CC[C@@H](c1ccccc1)n1c(=O)c(NCCC(=O)O)nc2ccc(N(C)C(=O)C3COC3)nc21 [Example 27, N-{6-[methyl(oxetan-3-ylcarbonyl)amino]-3-oxo-4-[(1S)-1-phenylpropyl]-3,4-dihydropyrido[2,3-b]pyrazin-2-yl}-beta-alanine]
2480 |  | CCOc1ccccc1Cn1c(=O)c(NCCN2CCOCC2)nc2ccc(-c3c(C)noc3C)nc21 [Example 36, 6-(3,5-dimethyl-1,2-oxazol-4-yl)-4-(2-ethoxybenzyl)-2-{[2-(morpholin-4-yl)ethyl]amino}pyrido[2,3-b]pyrazin-3(4H)-one]
474 |  | Cc1noc(C)c1-c1ccc2nc(NCCN3CCOCC3)c(=O)n(Cc3ccccc3)c2n1 [Example 37, 4-benzyl-6-(3,5-dimethyl-1,2-oxazol-4-yl)-2-{[2-(morpholin-4-yl)ethyl]amino}pyrido[2,3-b]pyrazin-3(4H)-one]
532 |  | CC[C@H](c1ccccc1)n1c(=O)c(NCCN2CCOCC2)nc2ccc(-c3c(C)noc3C)nc21 [Example 38, 6-(3,5-dimethyl-1,2-oxazol-4-yl)-2-{[2-(morpholin-4-yl)ethyl]amino}-4-[(1R)-1-phenylpropyl]pyrido[2,3-b]pyrazin-3(4H)-one]
4870 |  | Cc1noc(C)c1-c1ccc2nc(NCCC(=O)O)c(=O)n(C3CCOCC3)c2n1 [Example 49, N-[6-(3,5-dimethyl-1,2-oxazol-4-yl)-3-oxo-4-(tetrahydro-2H-pyran-4-yl)-3,4-dihydropyrido[2,3-b]pyrazin-2-yl]-beta-alanine]
